Test results from paper PMC5701947, “β1-Adrenergic Receptor Contains Multiple IA^k and IE^k Binding Epitopes That Induce T Cell Responses with Varying Degrees of Autoimmune Myocarditis in A/J Mice” (Frontiers in Immunology, 2017).
“Also recorded” adds a separate entry of the source. Values belong to the compound of their own block, whether it stands above or below them. Residues, ends and D or L forms follow the SMILES beside them. No end group written: not given here.

What was measured:
IA^k = target: T1, IA^k (Mus musculus, UniProt P01910+P06343); assay: MHC class II-binding assay, IA^k; parameters: species or system A/J mice; conditions: competition with biotinylated HEL 46–61 (1 µM); empty IA^k monomers 0.35 µg; competitor 0.00001–100 µM; pH 7.0, overnight, RT; DELFIA europium fluorescence 340/615 nm; mean ± SEM, three experiments with two replicates each
T1 construct: soluble IA^k and IE^k monomers were expressed; class II-associated invariant-chain peptide (CLIP) 88–102 (VSQMRMATPLLMRPM) with thrombin cleavage site (cleaved yes); made in house; host or cells: baculovirus expression (sf9 cells are named only for the IA^k dextramer constructs)
Experimental: A/J mice express two MHC class II alleles, IA^k and IE^k ([33], [34]), and to determine the affinities of β1AR peptides, soluble IA^k and IE^k monomers were expressed ([34], [35]). In brief, the β-chain in each of IA^k and IE^k constructs contain sequence for class II-associated invariant-chain peptide 88–102 (VSQMRMATPLLMRPM) linked with thrombin cleavage site ([34], [35]). After expressing in the baculovirus, soluble IA^k and IE^k monomers were treated with thrombin (20 U/mg; Novagen, Madison, WI, USA) to release class II-associated invariant-chain peptide leading us to obtain empty IA^k and IE^k molecules. Reaction mixtures were prepared to include empty IA^k or IE^k monomers (0.35 µg), competitor peptides (β1ARAc 171–190, β1ARAc 181–200, β1ARAc 201–220, and β1ARAc 211–230) (0.00001–100 µM), and constant amounts of the biotinylated reference peptides HEL 46–61 (for IA^k) or MCC 82–103 (for IE^k) (1 µM) in a buffer containing 50 mM sodium phosphate pH 7.0, 100 mM sodium chloride, 1 mM EDTA, and 1 × protease inhibitor (Sigma-Aldrich, St. Louis, MO, USA) ([36]–[38]). After incubating overnight at RT, the mixtures were transferred to 96-well white fluorescence plates coated with anti-IA^k (clone 10-2.16, BioXcell, West Lebanon, NH, USA), and anti-IE^k (clone M5/114, BioXcell) Abs (10 µg/ml) in 0.2 M sodium phosphate buffer, pH 6.8, blocked with 2% bovine casein; and the plates were incubated on a rocker at RT for 1 h. Finally, after adding 100 µl of europium-labeled streptavidin (0.1 µg/ml) and dissociation-enhanced lanthanide fluoroimmunoassay (DELFIA) enhancement solution (Perkin Elmer) sequentially, fluorescence intensities were measured at excitation/emission wavelengths of 340/615 nm using a Victor Multilabel Plate Reader (Perkin Elmer). The IC50 values were determined based on the concentrations of competitor peptides needed to prevent 50% binding of the reference peptides as we have described previously ([26], [28], [30]).

[1] = system: non-cardiac tissues (brain, lung, liver, kidney); conditions: mouse, in vivo
A/J mice (hearts) = assay: Induction of myocarditis by active immunization with peptides (histology); format: in vivo; conditions: for Myocarditis incidence / Myocarditis incidence (animals with disease/total) / Inflammatory foci: individual non-acetylated peptide, 100 µg per animal; for Myocarditis incidence / Myocarditis incidence (animals with disease/total): CFA/PT, days 0 and 7, day 21; for Inflammatory foci: mean ± SEM of myocarditic animals
[2] = system: T cells (lymph node cells/splenocytes from immunized animals); assay: T cell proliferation assay ([3H]-thymidine); format: cell-based, A/J mice; conditions: for T cell responses: fold vs medium control; for T cell responses (in words): proliferation, 0–100 µg/ml, 2 days + 16 h [3H]-thymidine, cpm
Experimental: At termination, lymph nodes (maxillary, mandibular, axillary, inguinal, and popliteal) and spleens were harvested from immunized animals to prepare single cell suspensions. Similarly, splenocytes were prepared from naive animals. After lysing the erythrocytes and washing, cell pellets were suspended in RPMI medium containing 10% fetal bovine serum, 1 mM sodium pyruvate, 4 mM L-glutamine, 1 × each of non-essential amino acids and vitamin mixture, and 100 U/ml penicillin–streptomycin (Lonza, Walkersville, MD, USA; hereafter called growth medium). In some experiments, CD4 T cells and CD8 T cells were enriched to a purity of ~95% by negative selection based on magnetic separation using IMAG (BD Biosciences, San Jose, CA, USA) ([31]). To stimulate CD4 and CD8 T cells, syngeneic naive irradiated splenocytes loaded with peptides were used as antigen-presenting cells at a ratio of 1:1. Cells were stimulated at a density of ~5 × 10^6 cells/ml in triplicates with or without the immunizing peptides (0–100 µg/ml) in growth medium. RNase 43–56 or HEL 46–61 were used as irrelevant controls. After 2 days, cells were pulsed with tritiated ^3[H]-thymidine (1 μCi/well; MP Biomedicals, Santa Ana, CA, USA), and 16 h later, proliferative responses were measured as counts per minute (cpm) using a Wallac liquid scintillation counter (Perkin Elmer, Waltham, MA, USA) ([26], [28], [30]).

rabbits, rats, and mice = conditions: cited from earlier work
Description: While, an assumption made in these studies that a single epitope of β1AR can act as an immunogen in various species despite the major histocompatibility complex (MHC) alleles to be different was found valid, identification of other potential immunodominant epitopes, if any, was not explored. Lik ... || In this report, we describe identification of T cell epitopes of β1AR in A/J mice that are highly susceptible to lymphocytic myocarditis induced by various cardiac antigens namely, Myhc ([28]), cardiac troponin I ([47]), ANT ([26]), and BCKD kinase ([30]). Importance of β1AR in the cardiac disease has long been investigated in that patients with myocarditis/DCM, in particular, IDCM show β1AR-reactive antibodies.

[3] = 10 μg/ml, animals immunized with pool IV
[4] = 100 μg/ml, animals immunized with pool IV
[5] = 10 μg/ml, animals immunized with pool VIII
[6] = 100 μg/ml, animals immunized with pool VIII
[7] = 10 μg/ml, animals immunized with pool III
[8] = 100 μg/ml, animals immunized with pool III

T1 sequence (P01910 24-218 limits assumed): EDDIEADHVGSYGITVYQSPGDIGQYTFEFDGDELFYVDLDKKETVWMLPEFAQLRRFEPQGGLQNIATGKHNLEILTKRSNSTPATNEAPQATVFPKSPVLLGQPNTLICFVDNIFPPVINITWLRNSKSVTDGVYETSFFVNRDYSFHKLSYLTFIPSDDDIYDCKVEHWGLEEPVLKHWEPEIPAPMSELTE
T1 sequence (P06343 28-224 limits assumed): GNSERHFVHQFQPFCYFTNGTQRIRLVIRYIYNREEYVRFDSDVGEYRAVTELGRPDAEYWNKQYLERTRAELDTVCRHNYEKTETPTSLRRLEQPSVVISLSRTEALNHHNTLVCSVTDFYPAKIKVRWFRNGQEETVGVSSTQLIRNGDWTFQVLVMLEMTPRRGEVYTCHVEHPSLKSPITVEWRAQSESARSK

IC50 (IA^k): 26.1 ± 12.4 µM | Brain, inflammatory foci [1]: 0 | Kidney, inflammatory foci [1]: 0 | Liver, inflammatory foci [1]: 29.17 ± 6.83 | Lung, inflammatory foci [1]: 4.33 ± 0 .21
Compound: Ac-TRARARALVCTVWAISALVS [β1ARAc 171–190]
Brain, incidence (animals affected/total) [1]: 0/6 | Brain, incidence of inflammation [1]: 0% | Kidney, incidence (animals affected/total) [1]: 0/6 | Kidney, incidence of inflammation [1]: 0% | Liver, incidence (animals affected/total) [1]: 6/6 | Liver, incidence of inflammation [1]: 100% | Lung, incidence (animals affected/total) [1]: 6/6 | Lung, incidence of inflammation [1]: 100%

Compound: NDPKCCDFVTNRAYAIASSV [β1AR 211-230, 20-mer of mouse β1AR peptide library]
Disease severity (in words) (A/J mice (hearts); individual immunization, non-acetylated peptides): mild disease | Myocarditis incidence (A/J mice (hearts)): 40% | Myocarditis incidence (animals with disease/total) (A/J mice (hearts)): 2/5 | Inflammatory foci (A/J mice (hearts)): 2.0 ± 1.0 | T cell responses [2, 3]: 3.15 fold | T cell responses [2, 4]: 3.27 fold

Compound: β1AR 391-410: 20-mer of mouse β1AR peptide library (RAAHGDRPRASGCLARAGPP; UniProt P34971 391-410, looked up, fragment)
Myocarditis incidence (A/J mice (hearts)): 0% | Myocarditis incidence (animals with disease/total) (A/J mice (hearts)): 0/5 | Inflammatory foci (A/J mice (hearts)): 0 | T cell responses [2, 5]: 1.03 fold | T cell responses [2, 6]: 1.18 fold | T cell responses (in words) [2]: did not show T cell responses

IC50 (IA^k): 97.1 ± 2.07 µM | Brain, inflammatory foci [1]: 0 | Kidney, inflammatory foci [1]: 0 | Liver, inflammatory foci [1]: 44.50 ± 11.66 | Lung, inflammatory foci [1]: 3.17 ± 0.60
Compound: Ac-TVWAISALVSFLPILMHWWR [β1ARAc 181–200]
Brain, incidence (animals affected/total) [1]: 0/6 | Brain, incidence of inflammation [1]: 0% | Kidney, incidence (animals affected/total) [1]: 0/6 | Kidney, incidence of inflammation [1]: 0% | Liver, incidence (animals affected/total) [1]: 6/6 | Liver, incidence of inflammation [1]: 100% | Lung, incidence (animals affected/total) [1]: 6/6 | Lung, incidence of inflammation [1]: 100%

Compound: β1AR 201-220: 20-mer of mouse β1AR peptide library (AESDEARRCYNDPKCCDFVT; UniProt P34971 201-220, looked up, fragment)
Myocarditis incidence (A/J mice (hearts)): 0% | Myocarditis incidence (animals with disease/total) (A/J mice (hearts)): 0/5 | Inflammatory foci (A/J mice (hearts)): 0 | T cell responses [2, 3]: 1.08 fold | T cell responses [2, 4]: 1.37 fold

Compound: HWWRAESDEARRCYNDPKCCDFVTNR [β1AR 197–222]
Cardiac abnormalities in Balb/c mice (in words) (rabbits, rats, and mice; Balb/c mice): cardiac abnormalities could be detected in Balb/c mice only at 25 weeks but not at 14 weeks postimmunization | Antibody induction in rodent species (in words) (rabbits, rats, and mice): shown to induce antibodies in various rodent species | Cardiomyopathy on prolonged immunization (in words) (rabbits, rats, and mice; monthly/biweekly immunizations for 6–18 months): developed cardiac dysfunctions suggestive of DCM, with minimal or no heart infiltrates; also recorded: can develop features of cardiomyopathy during the course of ~1 year with little or no myocarditis | Cardiomyopathic changes in rats (in words) (rabbits, rats, and mice; rats, prolonged immunization): early cardiomyopathic changes at 1 year, but with no necrosis or fibrosis including changes in heart to body weight ratios

Compound: β1AR 191-210: 20-mer of mouse β1AR peptide library (FLPILMHWWRAESDEARRCY; UniProt P34971 191-210, looked up, fragment)
Myocarditis incidence (A/J mice (hearts)): 0% | Myocarditis incidence (animals with disease/total) (A/J mice (hearts)): 0/5 | Inflammatory foci (A/J mice (hearts)): 0 | T cell responses [2, 3]: 1.26 fold | T cell responses [2, 4]: 1.63 fold

Compound: β1AR 381-400: 20-mer of mouse β1AR peptide library (CCARRAACRRRAAHGDRPRA; UniProt P34971 381-400, looked up, fragment)
Myocarditis incidence (A/J mice (hearts)): 0% | Myocarditis incidence (animals with disease/total) (A/J mice (hearts)): 0/5 | Inflammatory foci (A/J mice (hearts)): 0 | T cell responses [2, 5]: 1.10 fold | T cell responses [2, 6]: 1.45 fold | T cell responses (in words) [2]: did not show T cell responses

IC50 (IA^k): 18.6 ± 1.23 µM | Brain, inflammatory foci [1]: 0 | Kidney, inflammatory foci [1]: 0 | Liver, inflammatory foci [1]: 20.33 ± 4.83 | Lung, inflammatory foci [1]: 2.50 ± 1.34
Compound: CC[C@H](C)[C@H](NC(=O)[C@H](C)NC(=O)[C@H](Cc1ccc(O)cc1)NC(=O)[C@H](C)NC(=O)[C@H](CCCNC(=N)N)NC(=O)[C@H](CC(N)=O)NC(=O)[C@@H](NC(=O)[C@@H](NC(=O)[C@H](Cc1ccccc1)NC(=O)[C@H](CC(=O)O)NC(=O)[C@H](CS)NC(=O)[C@H](CS)NC(=O)[C@H](CCCCN)NC(=O)[C@@H]1CCCN1C(=O)[C@H](CC(=O)O)NC(=O)[C@H](CC(N)=O)NC(C)=O)C(C)C)[C@@H](C)O)C(=O)N[C@@H](C)C(=O)N[C@@H](CO)C(=O)N[C@@H](CO)C(=O)N[C@H](C(=O)O)C(C)C [β1ARAc 211–230] (Ac-NDPKCCDFVTNRAYAIASSV-OH)
Brain, incidence (animals affected/total) [1]: 0/5 | Brain, incidence of inflammation [1]: 0% | Kidney, incidence (animals affected/total) [1]: 0/6 | Kidney, incidence of inflammation [1]: 0% | Liver, incidence (animals affected/total) [1]: 6/6 | Liver, incidence of inflammation [1]: 100% | Lung, incidence (animals affected/total) [1]: 5/6 | Lung, incidence of inflammation [1]: 83%

Compound: β1AR 261-280: 20-mer of mouse β1AR peptide library (CERRFLGGPARPPSPEPSPS; UniProt P34971 261-280, looked up, fragment)
T cell responses ([2]; 10 μg/ml, animals immunized with pool V): 0.86 fold | T cell responses ([2]; 100 μg/ml, animals immunized with pool V): 1.32 fold

Compound: β1AR 131-150: 20-mer of mouse β1AR peptide library (CELWTSVDVLCVTASIETLC; UniProt P34971 131-150, looked up, fragment)
T cell responses [2, 7]: 1.28 fold | T cell responses [2, 8]: 1.72 fold

Compound: β1AR 111-130: 20-mer of mouse β1AR peptide library (VVPFGATIVVWGRWEYGSFF; UniProt P34971 111-130, looked up, fragment)
T cell responses [2, 7]: 1.97 fold | T cell responses [2, 8]: 2.49 fold
